Laboratory results from ChEMBL document CHEMBL1201862, “PubChem BioAssay data set” (2004).
Calls of active or inactive are those of the source. The rule behind the calls is not given here.

Tests used:
[1] = Fluorescence polarization-based biochemical high throughput dose response assay for activators of the Protein Kinase A-R1A (PKA-R1A) complex. [Related pubchem assays (depositor defined):AID504704, AID504707, AID504799, AID504800]
[2] = Fluorescence polarization-based biochemical high throughput dose response assay for activators of the Protein Kinase A-R2B (PKA-R2B) complex. [Related pubchem assays (depositor defined):AID504700, AID504704, AID504796, AID504797]
Candida albicans = assay: Candida growth effect without fluconazole – C. albicans CaCi-2, dry powder, counter-screen for antifungal drug resistance project, dose response (AID 488802); assay type: functional, organism-based
NIH3T3 = assay: mammalian cell viability counter-check – Alamar Blue, fluconazole, dry powder, cytotoxicity control for antifungal drug resistance project, dose response (AID 488809); assay type: functional, cell-based; details: Mus musculus

**Q.** With `CCOP1(=O)OCC2OC(n3cnc4c(N)ncnc43)C(O)C2O1` (centres undefined) as the compound, how does the EC50 [1] read?
**A.** 2.68 µM (active)

**Q.** And the EC50 [2]?
**A.** 3.75 µM (active)

**Q.** What does the source list for `CCCNC(=O)Cn1nc(-c2ccccc2)c2cc(Cl)ccc21`?
**A.** AC50 (Candida albicans): 83.4 µM (active); AC50 (NIH3T3): 28.9 µM (active)
